Where two headings read alike, the source gives them in different places.
Target: soluble guanylate cyclase (sGC) (Homo sapiens (Human), UniProt Q02108+Q02153)
Assay: sGC-HEK-cGMP assay with SNP incubation, LC/MS detection (Example 2A)
Assay type: cell-based
Settings: HEK293 cells, 10 μM SNP, LC/MS detection; for Emax: 100% = BAY 41-2272 at 10 μM, read-out: HEK assay Emax - unconstrained (%)
Outline: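 HEK293 cells with endogenous sGC were pretreated 15 min at 37 °C with 0.5 mM IBMX, then exposed 10 min at 37 °C to compound (added from 0.0001–30 μM solutions) plus SNP (from 10 μM solution). After 0.1 M HCl lysis, cGMP was quantified by LC/MS against a standard curve.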

[1] = top of curve not fitted to 100%, read-out: HEK assay EC50 - unconstrained
[2] = top of curve fitted to 100%, read-out: HEK assay EC50 - constrained

soluble guanylate cyclase (sGC), sequence (Q02153 whole entry): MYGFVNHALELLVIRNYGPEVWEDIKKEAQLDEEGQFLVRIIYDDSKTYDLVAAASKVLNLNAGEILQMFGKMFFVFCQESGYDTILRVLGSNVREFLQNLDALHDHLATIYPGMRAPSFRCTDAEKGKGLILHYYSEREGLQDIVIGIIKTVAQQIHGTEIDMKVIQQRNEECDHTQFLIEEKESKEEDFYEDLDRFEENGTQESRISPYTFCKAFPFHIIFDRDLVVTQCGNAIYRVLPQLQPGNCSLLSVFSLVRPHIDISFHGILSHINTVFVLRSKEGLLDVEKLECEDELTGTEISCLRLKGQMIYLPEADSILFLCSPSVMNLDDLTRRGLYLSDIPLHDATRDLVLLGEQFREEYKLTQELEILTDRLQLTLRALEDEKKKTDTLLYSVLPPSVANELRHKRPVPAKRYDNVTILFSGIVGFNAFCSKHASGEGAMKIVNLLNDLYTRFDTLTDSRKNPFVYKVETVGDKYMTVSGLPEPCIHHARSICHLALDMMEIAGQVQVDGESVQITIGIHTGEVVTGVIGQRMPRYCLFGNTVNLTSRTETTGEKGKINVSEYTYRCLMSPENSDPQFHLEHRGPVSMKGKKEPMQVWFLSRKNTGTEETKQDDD
soluble guanylate cyclase (sGC), sequence (Q02108 whole entry): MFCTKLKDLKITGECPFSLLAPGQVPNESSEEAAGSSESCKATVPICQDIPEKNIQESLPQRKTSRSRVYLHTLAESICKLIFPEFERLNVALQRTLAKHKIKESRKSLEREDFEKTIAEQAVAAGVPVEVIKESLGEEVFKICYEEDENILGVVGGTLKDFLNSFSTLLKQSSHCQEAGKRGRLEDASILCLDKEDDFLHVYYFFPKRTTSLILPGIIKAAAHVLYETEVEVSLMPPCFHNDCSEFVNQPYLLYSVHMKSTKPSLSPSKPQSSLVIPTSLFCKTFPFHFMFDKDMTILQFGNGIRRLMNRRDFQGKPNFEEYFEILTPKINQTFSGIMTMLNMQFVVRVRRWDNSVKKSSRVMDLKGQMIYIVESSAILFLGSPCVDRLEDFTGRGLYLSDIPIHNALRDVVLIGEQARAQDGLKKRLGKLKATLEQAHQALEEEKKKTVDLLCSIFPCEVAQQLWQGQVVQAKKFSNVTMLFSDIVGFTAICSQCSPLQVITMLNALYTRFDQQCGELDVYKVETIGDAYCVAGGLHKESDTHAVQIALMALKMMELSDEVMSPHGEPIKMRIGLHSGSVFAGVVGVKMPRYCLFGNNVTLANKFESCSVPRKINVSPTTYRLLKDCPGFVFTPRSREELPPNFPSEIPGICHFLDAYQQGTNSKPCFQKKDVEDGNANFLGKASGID

What does the source list for `NC1CN(c2nc(-c3cc(-c4ccon4)n(Cc4ccccc4F)n3)ncc2F)C1` [Compound I-40, 1-(5-fluoro-2-(1-(2-fluorobenzyl)-5-(isoxazol-3-yl)-1H-pyrazol-3-yl)pyrimidin-4-yl)azetidin-3-amine]?
Emax: 60 to 80%; EC50 [1]: 1 to 5 µM

How did the Emax turn out when `COC1CCN(c2nc(-c3cc(-c4ccon4)n(Cc4ccccc4F)n3)ncc2F)C1` (centres unmarked) [Compound I-17] was run?
Its Emax is 60 to 80%.

And the EC50 [1]?
Its EC50 is 0.1 to 0.5 µM.

Which Emax does the source give for `CC(CN(C)c1nc(-c2cc(-c3ccon3)n(Cc3ccccc3F)n2)ncc1F)C(=O)O` (centres unmarked) [Compound I-170] here?
Its Emax is 60 to 80%.

And the EC50 [1]?
The EC50 was 0.1 to 0.5 µM.

`O=C(O)[C@@H]1CC(F)(F)CN1c1nc(-c2cc(-c3ccon3)n(Cc3ccccc3F)n2)ncc1F` [Compound I-301] was tested. Which Emax did it give?
Its Emax is 60 to 80%.

What about the EC50 [1] of the same compound?
Its EC50 is 1 to 5 µM.

With `COC(=O)N(C(=O)OC)c1nc(-c2cc(-c3ccon3)n(Cc3ccccc3F)n2)ncc1F` [Compound I-52] as the compound, how does the Emax read?
Its Emax is 60 to 80%.

What about the EC50 [1] of the same compound?
The EC50 was 1 to 5 µM.

Which results are given for `CC(C)[C@@H](CC(=O)O)N(C)c1nc(-c2cc(-c3ccon3)n(Cc3ccccc3F)n2)ncc1F` [Compound I-202]?
Emax: 80 to 100%; EC50 [1]: 0.1 to 0.5 µM

Which results are given for `O=C(O)CN1CCCN1c1nc(-c2cc(-c3ccon3)n(Cc3ccccc3F)n2)ncc1F` [Compound I-216]?
Emax: 40 to 60%; EC50 [1]: 0.1 to 0.5 µM

`COc1nc(-c2cc(-c3ccon3)n(Cc3ccccc3F)n2)nc(N2CCOCC2)c1F` [Compound I-172] was tested. Which EC50 [2] did it give?
Its EC50 is greater than 10 µM.

For `CC1CN(c2nc(-c3cc(-c4ccon4)n(Cc4ccccc4F)n3)ncc2F)CCC1C(=O)O` (centres unmarked) [Compound I-190], which Emax is on record?
Its Emax is 60 to 80%.

And the EC50 [1]?
The EC50 was 1 to 5 µM.

With `O=C(O)C1CCCCC1Nc1nc(-c2cc(-c3ccon3)n(Cc3ccccc3F)n2)ncc1F` (centres unmarked) [Compound I-154] as the compound, how does the Emax read?
Its Emax is 60 to 80%.

And the EC50 [1]?
The EC50 was 0.1 to 0.5 µM.

With `CN(c1nc(-c2cc(-c3ccon3)n(Cc3ccccc3F)n2)ncc1F)C(CC(F)(F)F)C(=O)O` (centres unmarked) [Compound I-244] as the compound, how does the Emax read?
The Emax was 80 to 100%.

What about the EC50 [1] of the same compound?
The EC50 was 0.5 to 1 µM.

Which Emax does the source give for `CC(C)CC(Nc1nc(-c2cc(-c3ccon3)n(Cc3ccccc3F)n2)ncc1F)C(=O)NS(C)(=O)=O` (centres unmarked) [Compound I-259] here?
The Emax was 100 to 120%.

What about the EC50 [1] of the same compound?
Its EC50 is 0.1 to 0.5 µM.

Which results are given for `O=C(O)CCNc1nc(-c2cc(-c3ccon3)n(Cc3ccccc3F)n2)ncc1F` [Compound I-174]?
Emax: 60 to 80%; EC50 [1]: 0.5 to 1 µM

Which results are given for `CN(c1nc(-c2cc(-c3ccon3)n(Cc3ccccc3F)n2)ncc1F)[C@@H]1CCCC[C@H]1C(=O)O` [Compound I-242]?
Emax: 100 to 120%; EC50 [1]: 0.1 to 0.5 µM

For `O=C(NS(=O)(=O)N1CCN(c2nc(-c3cc(-c4ccon4)n(Cc4ccccc4F)n3)ncc2F)CC1)C1CC1` [Compound I-285], which Emax is on record?
Its Emax is 100 to 120%.

And the EC50 [1]?
Its EC50 is 0.001 to 0.1 µM.

`C[C@H](C[C@H](Nc1nc(-c2cc(-c3ccon3)n(Cc3ccccc3F)n2)ncc1F)C(=O)O)C(F)(F)F` [Compound I-224] was tested. Which Emax did it give?
The Emax was 60 to 80%.

And the EC50 [1]?
Its EC50 is 1 to 5 µM.

For `NC1CCN(c2nc(-c3cc(-c4ccon4)n(Cc4ccccc4F)n3)ncc2F)C1` (centres unmarked) [Compound I-46], which Emax is on record?
The Emax was 60 to 80%.

What about the EC50 [1] of the same compound?
Its EC50 is 1 to 5 µM.

What does the source list for `CNS(=O)(=O)N1CCN(c2nc(-c3cc(-c4ccon4)n(Cc4ccccc4F)n3)ncc2F)CC1` [Compound I-158]?
Emax: 60 to 80%; EC50 [1]: 0.001 to 0.1 µM

How did the Emax turn out when `O=C(O)[C@H]1CCC[C@H]1Nc1nc(-c2cc(-c3ccon3)n(Cc3ccccc3F)n2)ncc1F` [Compound I-156] was run?
The Emax was 80 to 100%.

And the EC50 [1]?
The EC50 was 0.1 to 0.5 µM.

Which results are given for `CN(c1nc(-c2cc(-c3ccon3)n(Cc3ccccc3F)n2)ncc1F)[C@@H](C(=O)O)C1CC1` [Compound I-241]?
Emax: 80 to 100%; EC50 [1]: 0.1 to 0.5 µM

Which Emax does the source give for `CN(Cc1cccc(C(=O)O)c1)c1nc(-c2cc(-c3ccon3)n(Cc3ccccc3F)n2)ncc1F` [Compound I-274] here?
Its Emax is 100 to 120%.

What about the EC50 [1] of the same compound?
The EC50 was 0.001 to 0.1 µM.

With `O=C(O)CCC1CCN(c2nc(-c3cc(-c4ccon4)n(Cc4ccccc4F)n3)ncc2F)CC1` [Compound I-234] as the compound, how does the Emax read?
Its Emax is 80 to 100%.

What about the EC50 [1] of the same compound?
The EC50 was 0.1 to 0.5 µM.

Which results are given for `CC(C)(C)OC(=O)N1CC(Nc2nc(-c3cc(-c4ccon4)n(Cc4ccccc4F)n3)ncc2F)C1` [Compound I-26]?
Emax: 60 to 80%; EC50 [1]: 0.1 to 0.5 µM

`Cc1noc(C2CCCCN2c2nc(-c3cc(-c4ccon4)n(Cc4ccccc4F)n3)ncc2F)n1` (centres unmarked) [Compound I-98] was tested. Which Emax did it give?
The Emax was 40 to 60%.

What about the EC50 [1] of the same compound?
Its EC50 is 1 to 5 µM.

How did the Emax turn out when `O=C(O)C1CCCCCN1c1nc(-c2cc(-c3ccon3)n(Cc3ccccc3F)n2)ncc1F` (centres unmarked) [Compound I-75] was run?
The Emax was 60 to 80%.

And the EC50 [1]?
Its EC50 is 0.1 to 0.5 µM.

How did the Emax turn out when `CCN(CC)c1nc(-c2cc(-c3ccon3)n(Cc3ccccc3F)n2)ncc1F` [Compound I-60] was run?
The Emax was 100 to 120%.

And the EC50 [1]?
Its EC50 is 0.5 to 1 µM.

Which results are given for `CSCCC(Nc1nc(-c2cc(-c3ccon3)n(Cc3ccccc3F)n2)ncc1F)C(=O)O` (centres unmarked) [Compound I-199]?
Emax: 60 to 80%; EC50 [1]: 5 to 10 µM

With `CCC(C)(C)C1(C(=O)O)CCN(c2nc(-c3cc(-c4ccon4)n(Cc4ccccc4F)n3)ncc2F)CC1` [Compound I-256] as the compound, how does the Emax read?
Its Emax is 80 to 100%.

What about the EC50 [1] of the same compound?
The EC50 was 0.1 to 0.5 µM.

What does the source list for `CC(C)(C)OC(=O)N1CCC(Nc2nc(-c3cc(-c4ccon4)n(Cc4ccccc4F)n3)ncc2F)CC1` [Compound I-12]?
Emax: 100 to 120%; EC50 [1]: 1 to 5 µM

With `CCOC(=O)CN(Cc1ccccc1)c1nc(-c2cc(-c3ccon3)n(Cc3ccccc3F)n2)ncc1F` [Compound I-166] as the compound, how does the Emax read?
Its Emax is 40 to 60%.

What about the EC50 [1] of the same compound?
Its EC50 is 0.1 to 0.5 µM.

For `CC(=O)NS(=O)(=O)N1CCN(c2nc(-c3cc(-c4ccon4)n(Cc4ccccc4F)n3)ncc2F)CC1` [Compound I-177], which Emax is on record?
Its Emax is 60 to 80%.

And the EC50 [1]?
The EC50 was 0.1 to 0.5 µM.

With `CCOC(=O)c1nnc2n1CCN(c1nc(-c3cc(-c4ccon4)n(Cc4ccccc4F)n3)ncc1F)C2` [Compound I-115] as the compound, how does the Emax read?
Its Emax is 40 to 60%.

And the EC50 [1]?
The EC50 was 0.001 to 0.1 µM.

`Fc1ccccc1Cn1nc(-c2ncc(Cl)c(N3CCOCC3)n2)cc1-c1ccon1` [Compound I-28] was tested. Which Emax did it give?
Its Emax is 60 to 80%.

And the EC50 [1]?
Its EC50 is 1 to 5 µM.

With `O=C(O)C1CCCN1c1nc(-c2cc(-c3ccon3)n(Cc3ccccc3F)n2)ncc1F` (centres unmarked) [Compound I-41] as the compound, how does the Emax read?
Its Emax is 60 to 80%.

`CNc1nc(-c2cc(-c3ccon3)n(Cc3ccccc3F)n2)ncc1F` [Compound I-196] was tested. Which Emax did it give?
Its Emax is 80 to 100%.

For `CC(C)[C@H](CNc1nc(-c2cc(-c3ccon3)n(Cc3ccccc3F)n2)ncc1F)C(=O)O` [Compound I-171], which Emax is on record?
The Emax was 60 to 80%.

What about the EC50 [1] of the same compound?
The EC50 was 0.001 to 0.1 µM.

What does the source list for `Fc1ccccc1Cn1nc(-c2ncc(F)c(N3CCC4(CC3)COC4)n2)cc1-c1ccon1` [Compound I-42]?
Emax: 80 to 100%; EC50 [1]: 0.1 to 0.5 µM

How did the EC50 [2] turn out when `O=C(O)[C@@H](Cc1ccc(O)cc1)Nc1nc(-c2cc(-c3ccon3)n(Cc3ccccc3F)n2)ncc1F` [Compound I-165] was run?
The EC50 was greater than 10 µM.

How did the Emax turn out when `CC(C)(C)OC(=O)NC1CN(c2nc(-c3cc(-c4ccon4)n(Cc4ccccc4F)n3)ncc2F)C1` [Compound I-21, tert-butyl (1-(5-fluoro-2-(1-(2-fluorobenzyl)-5-(isoxazol-3-yl)-1H-pyrazol-3-yl)pyrimidin-4-yl)azetidin-3-yl)carbamate] was run?
The Emax was 40 to 60%.

And the EC50 [1]?
The EC50 was 0.1 to 0.5 µM.

With `O=C(O)CN(CC1CC1)c1nc(-c2cc(-c3ccon3)n(Cc3ccccc3F)n2)ncc1F` [Compound I-203] as the compound, how does the Emax read?
The Emax was 40 to 60%.

What about the EC50 [1] of the same compound?
Its EC50 is 0.1 to 0.5 µM.

For `O=C(O)CN(Cc1ccccc1)c1nc(-c2cc(-c3ccon3)n(Cc3ccccc3F)n2)ncc1F` [Compound I-168], which Emax is on record?
The Emax was 60 to 80%.

What about the EC50 [1] of the same compound?
Its EC50 is 0.1 to 0.5 µM.

With `CC(C)C(CC(=O)O)N(C)c1nc(-c2cc(-c3ccon3)n(Cc3ccccc3F)n2)ncc1F` (centres unmarked) [Compound I-195] as the compound, how does the Emax read?
The Emax was 60 to 80%.

And the EC50 [1]?
Its EC50 is 0.001 to 0.1 µM.

With `O=C(O)C1C2CCC(C2)N1c1nc(-c2cc(-c3ccon3)n(Cc3ccccc3F)n2)ncc1F` (centres unmarked) [Compound I-92] as the compound, how does the Emax read?
The Emax was 60 to 80%.

What about the EC50 [1] of the same compound?
The EC50 was 1 to 5 µM.

`O=C(O)CN(CC(F)(F)F)c1nc(-c2cc(-c3ccon3)n(Cc3ccccc3F)n2)ncc1F` [Compound I-273] was tested. Which Emax did it give?
The Emax was 60 to 80%.

And the EC50 [1]?
The EC50 was 0.5 to 1 µM.

`O=C(O)C1CN(c2nc(-c3cc(-c4ccon4)n(Cc4ccccc4F)n3)ncc2F)CCO1` (centres unmarked) [Compound I-83] was tested. Which EC50 [2] did it give?
The EC50 was greater than 10 µM.

What does the source list for `CC(C)(C)OC(=O)N1CCCN1c1nc(-c2cc(-c3ccon3)n(Cc3ccccc3F)n2)ncc1F` [Compound I-183]?
Emax: 60 to 80%; EC50 [1]: 0.1 to 0.5 µM

With `O=C1CCCCCN1CCCNc1nc(-c2cc(-c3ccon3)n(Cc3ccccc3F)n2)ncc1F` [Compound I-109] as the compound, how does the Emax read?
The Emax was 60 to 80%.

What about the EC50 [1] of the same compound?
The EC50 was 0.1 to 0.5 µM.

Which Emax does the source give for `Oc1ccc(CNc2nc(-c3cc(-c4ccon4)n(Cc4ccccc4F)n3)ncc2F)cc1` [Compound I-286] here?
The Emax was 80 to 100%.

And the EC50 [1]?
Its EC50 is 0.001 to 0.1 µM.

For `CC(C)(F)C(Nc1nc(-c2cc(-c3ccon3)n(Cc3ccccc3F)n2)ncc1F)C(=O)O` (centres unmarked) [Compound I-226], which Emax is on record?
The Emax was 60 to 80%.

What about the EC50 [1] of the same compound?
Its EC50 is 0.001 to 0.1 µM.

For `CC(C)(C)[C@H](CC(=O)O)Nc1nc(-c2cc(-c3ccon3)n(Cc3ccccc3F)n2)ncc1F` [Compound I-251], which Emax is on record?
The Emax was 60 to 80%.

And the EC50 [1]?
Its EC50 is 0.1 to 0.5 µM.

Source: patent US10183021B2, “sGC stimulators” (Ironwood Pharmaceuticals, Inc., priority 2013, dated 2019)
